From the NIST ThermoML archive (doi:10.1021/je700096m)

Assay: xn = mol fraction of the nth substance listed
Conditions: 298.15 K, Liquid

CCCCCCCCCl [1-chlorooctane] + CN(C)C=O
mass density [kg/m3]
Conditions	x2 = 0.1042	x2 = 0.2009	x2 = 0.2669	x2 = 0.4023	x2 = 0.4992	x2 = 0.6035	x2 = 0.6982	x2 = 0.8002	x2 = 0.9001
100 kPa	871.7	875.3	877.9	884.2	889.7	896.8	904.7	914.9	927.7
2000 kPa	873.1	876.7	879.4	885.6	891	898.2	906	916.1	928.8
4000 kPa	874.7	878.2	880.8	887.1	892.5	899.6	907.5	917.4	930.2
6000 kPa	876.1	879.7	882.3	888.5	893.9	900.9	908.8	918.8	931.4
7900 kPa	877.6	–	–	–	–	–	–	–	–
8000 kPa	–	881.1	883.7	889.9	895.3	902.3	910.1	920.1	932.6
9900 kPa	–	–	–	–	–	–	–	921.4	–
10000 kPa	879.1	882.7	885.2	891.4	896.8	903.7	911.4	–	933.9
12000 kPa	880.6	884.1	886.6	892.8	898.1	905	912.7	922.7	935.1
13900 kPa	–	885.4	–	–	–	–	–	–	–
14000 kPa	882	–	887.9	894.1	899.4	906.3	914	924	936.3
15900 kPa	883.2	–	889.2	–	900.7	–	–	–	–
16000 kPa	–	886.4	–	895.4	–	907.7	915.4	925	937.6
17900 kPa	–	–	–	896.7	–	–	–	–	938.6
18000 kPa	884.6	888.2	890.6	–	902	908.9	916.5	926.3	–
20000 kPa	886	–	891.8	898	903.3	910.3	917.7	927.5	939.8
20100 kPa	–	889.6	–	–	–	–	–	–	–
